Reference: US7528168B2, “Inhibitors of the fatty acid oxidation for the prophylaxis and/or the treatment of chronic and/or atopic skin diseases” (priority 2002, dated 2009)

Columns and labels:
[1] = tested on: transplanted human psoriasis skin; assay: Psoriasis model, Ki-67 staining (keratinocyte proliferation); type: in vivo, BNX mice; details: 3 weeks
Protocol: (§1) The psoriasis model described by Wrone-Smith and Nickoloff (1996) was used. 5 mm non-lesional skin biopsies from five psoriatic patients were each split in four pieces and transplanted on 20 immuno-deficient BNX mice, i.e. four groups of five mice each. Psoriasis was induced in all mice by injection with donors super-antigen-activated blood cells. After psoriasis had developed, mice were treated for 3 weeks by applying either placebo-cream, cream containing a corticosteroid (betamethasone), 1% Etomoxir or 30% Etomoxir daily on the skin. The cream containing 30% Etomoxir was removed after 30 minutes while the other creams were left on the skin.
(§2) After the treatment period, liver and blood of the mice were analyzed for their CPT1 activity and GOT/GPT levels. Furthermore, the epidermal thickness, in particular the depth of reti ridges, the number of Ki67 positive cells and the percentage of ULEX-positive cells (this marker stains the upper layers of the epidermis in normal skin and the whole epidermis in psoriatic skin) in the epidermis were determined.
(§3) Histological stainings are performed on cryo-preserved tissues. Diagonal cross sections (8μm) are cut (see FIG. 20), covering all skin-layers (located at the top layer are the stratum corneus and epidermis of the transplanted human biopsy and at the bottom the murine tissue is located, forming a base for the transplanted human skin).
Sections are stained with mu-∝Hu monoclonal Ab and evaluated at a microscopic magnification of 400×. Two representative sections are evaluated. The total number of positive cells are counted of the total section and indicated per unit-length. A unit-length is a microscopic view (of a part of the section) at a magnification of 400× (see FIG. 20). Per section several unit-lengths are counted (minimum of 8). From this the average number of Ki-67 positive cells per unit-length is calculated.

CPT1 [2] = assay: Inhibition of CPT1 activity by the salt of Etomoxir in vitro, pooled blood cell extract; type: biochemical, BNX mice
Protocol: 500 μl of total blood cells were frozen and drawn three tines to break up the cells. Samples were diluted by adding 500 μl buffer A and then centrifuged at 20000×g for 20 min at 4° C. Solid Pellets were resuspended in 200 μl buffer A and kept on ice for further analysis or stored at −80° C.
(§4) 2 μl of a 100× stock of Etomoxir-salt (0; 0.1; 1.0 and 10 mM) dissolved in DMSO were added in 1.5 ml Eppendorf tubes in duplicates. 2× activation mix was premixed on ice with either 15 μg of total protein of each liver sample or 300 μg of total protein of each plasma sample (final volume per reaction was 98 μl). 98 μl of this mix was added to each tube containing the 2 μl of inhibitor and tubes were left at 30° C. for exactly 30 min. Then 105 μl of reaction mix were added to start the CPT1 reaction. Again samples were incubated for exactly 5 min at 30° C. […] Finally, either 150 μl of the butanol phase were mixed with 1 ml Microscint0 in a 24 well-plate and cpm values were measured with the scintillation counter from Canberra Packard. P values were calculated with the t-test of the SigmaPlot 2001 software.
(§5) To determine the sensitivity of the CPT1 activity in response to Etomoxir, cell pellet samples were pooled and treated with increasing amounts of Etomoxir. […] 85% of the measured activity in the blood cells was Etomoxir insensitive and therefore the relevance of this assay is questionable.

CPT1 [3] = target: T1, CPT1 (Mus musculus, UniProt P97742); assay: CPT1 activity in liver of BNX mice after three weeks topical treatment; type: in vivo; details: 3 weeks, placebo set 100%
T1 construct: A small piece of frozen liver (appr. 200 mg) was homogenized in 600 μl of cold sucrose buffer; from tissue; host or cells: liver of BNX mice (mitochondrial enriched fraction)
T1 sequence (P97742 1-773): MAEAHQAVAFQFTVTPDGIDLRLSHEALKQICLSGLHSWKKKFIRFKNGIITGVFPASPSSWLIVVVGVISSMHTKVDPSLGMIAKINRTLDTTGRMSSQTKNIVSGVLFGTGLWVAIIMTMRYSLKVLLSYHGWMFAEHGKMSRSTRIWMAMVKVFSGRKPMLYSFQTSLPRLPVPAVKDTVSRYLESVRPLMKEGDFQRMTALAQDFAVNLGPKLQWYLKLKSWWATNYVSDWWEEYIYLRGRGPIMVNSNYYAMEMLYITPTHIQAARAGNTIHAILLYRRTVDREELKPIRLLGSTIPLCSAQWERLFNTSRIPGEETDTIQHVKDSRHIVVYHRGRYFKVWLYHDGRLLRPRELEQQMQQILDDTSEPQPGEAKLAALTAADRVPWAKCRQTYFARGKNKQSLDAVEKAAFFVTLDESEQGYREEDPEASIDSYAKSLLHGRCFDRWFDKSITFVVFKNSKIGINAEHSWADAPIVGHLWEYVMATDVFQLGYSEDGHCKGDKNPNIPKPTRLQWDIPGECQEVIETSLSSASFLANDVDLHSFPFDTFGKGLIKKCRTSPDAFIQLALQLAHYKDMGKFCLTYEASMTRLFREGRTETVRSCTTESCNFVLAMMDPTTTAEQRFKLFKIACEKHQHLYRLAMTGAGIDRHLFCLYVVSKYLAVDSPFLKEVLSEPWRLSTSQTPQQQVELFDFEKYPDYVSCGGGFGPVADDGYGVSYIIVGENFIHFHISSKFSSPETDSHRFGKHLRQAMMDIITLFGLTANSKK
Protocol: as §1, §2
(§6) A small piece of frozen liver (appr. 200 mg) was homogenized in 600 μl of cold sucrose buffer by 8-10 strokes with tight pestle of dounce homogenizer. Homogenate was centrifuged at 700×g for 10 min at 4° C. Supernatant was again centrifuged at 20000×g for 20 min at 4° C. Pellet was resuspended in 1400 μl buffer A and kept on ice for further analysis or stored at −80° C.
160 μl of bidestilled water was added to wells of a 96-well plate. For the standard curve 0 μg, 1 μg, 2 μg, 3 μg, 4 μg and 5 μg of BSA (BSA stock: 1 mg/ml from New England Biolabs) was added in duplicates to the first […]. 1 μl of the liver samples and the blood samples were added in duplicates to the wells. Finally 40 μl dye reagent concentrate (Bio-Rad protein assay) was added and mixed by pipetting up and down. After 5 to 30 min OD at 595 was measured versus reagent blank (0 μg BSA). For the calibration curve the OD was plotted against the concentration of BSA and total protein concentration of the liver samples was calculated in μg/μl.
20 μg of total protein of each liver sample and 300 μg of total protein of each plasma sample were added in 1.5 ml Eppendorf tubes (safe lock) and filled up to 100 μl with buffer A (all in duplicates). Background control was buffer A only. The tubes were preincubated for exactly 5 min at 30° C. prior to the addition of 105 μl of reaction mix. Again samples were incubated for exactly 5 min at 30° C. Reactions were stopped by adding 800 μl of 6% perchloric acid and stored on ice. […] Finally, either 100 μl (liver samples) or 150 μl (plasma samples) of the butanol phase were mixed with 1 ml Microscint0 in a 24 well-plate and cpm values were measured with the scintillation counter from Canberra Packard. […]

CPT1 [4] = assay: CPT1 activity in total blood cells of BNX mice after three weeks topical treatment; type: in vivo; details: 3 weeks
Protocol: as §1
After the treatment period, liver and blood of the mice were analyzed for their CPT1 activity and GOT/GPT levels. Furthermore, the epidermal thickness, in particular the depth of reti ridges, the number of Ki67 positive cells and the percentage of ULEX-positive cells (this marker stains the upper layers of the epidermis in normal skin and the whole epidermis in psoriatic skin) in the epidermis were determined. […]
160 μl of bidestilled water was added to wells of a 96-well plate. […] After 5 to 30 min OD at 595 was measured versus reagent blank (0 μg BSA). For the calibration curve the OD was plotted against the concentration of BSA and total protein concentration of the liver samples was calculated in μg/μl. […]

CPT1 [5] = target: T1, CPT1; assay: Inhibition of CPT1 activity by the salt of Etomoxir in vitro, mitochondrial enriched fractions of liver; type: biochemical, BNX mice
Protocol: as §6
as §4, with “min.” for “min. Then 105 μl of reaction mix were added to start the CPT1 reaction. Again samples were incubated for exactly 5 min at 30° C.”
as §5

[6] = tested on: transplanted human psoriasis skin; assay: Psoriasis model, hematoxyline staining (epidermal thickness); type: in vivo, BNX mice; details: 3 weeks, placebo 138±24 μm; for Epidermal thickness: three mice
Protocol: as §1, §2, §3
Sections are stained with hematoxyline and evaluated at a microscopic magnification of 200×. Two sections taken round the middle of the biopsy are evaluated. Thickness measurements are performed of the total section using a microscopic ocular with intergraded graduation-lines (ruler). From this, the average epidermal thickness measurements for ridges and the average of the total epidermis (mean of ridges and inter-ridges) are calculated in μm (taken into account magnification factor).

[7] = tested on: transplanted human psoriasis skin; assay: Psoriasis model, ULEX staining (keratinocyte differentiation); type: in vivo, BNX mice; details: 3 weeks, placebo 55±19%
Protocol: as §1, §2, §3
Sections are stained with biotinylated Europaeus Agglutinin 1 and evaluated at a microscopic magnification of 200×. Two representative sections are evaluated. The thickness of both the ULEX positive cell-layer (distribution of ULEX) as well as the ULEX negative layer of the total section is measured using a microscopic ocular with intergraded graduation-lines (ruler). From this the average ratio of ULEX positive differentiation is calculated (indicated as percentage of epidermis positive for ULUX).

[8] = Animal experiment, deaths during topical treatment; type: in vivo, BNX mice; details: 30% Etomoxir cream left on the skin; probably because they licked off the cream
Protocol: The psoriasis model described by Wrone-Smith and Nickoloff (1996) was used. 5 mm non-lesional skin biopsies from five psoriatic patients were each split in four pieces and transplanted on 20 immuno-deficient BNX mice, i.e. four groups of five mice each. Psoriasis was induced in all mice by injection with donors super-antigen-activated blood cells. After psoriasis had developed, mice were treated for 3 weeks by applying either placebo-cream, cream containing a corticosteroid (betamethasone), 1% Etomoxir or 30% Etomoxir daily on the skin. […]

| SMILES | Number of Ki67 positive cells as compared to the placebo group ([1]; 1% Etomoxir cream) | Number of Ki67 positive cells as compared to the placebo group ([1]; 30% Etomoxir cream) | Reduction of CPT1 activity in pooled blood cell pellet samples (CPT1 [2]; increasing amounts of Etomoxir (salt), activity without Etomoxir = 100%) | Part of the measured CPT1 activity in blood cells that is Etomoxir insensitive (CPT1 [2]; pooled cell pellet samples) | CPT1 activity in liver compared to the placebo group (CPT1 [3]; 1% Etomoxir cream daily) | CPT1 activity in liver compared to the placebo group (CPT1 [3]; 30% Etomoxir cream daily, excluding liver of dead animals) | CPT1 activity in liver compared to the placebo group (CPT1 [3]; 30% Etomoxir cream daily, including the two dead animals) | CPT1 activity in blood cell pellets versus placebo group (CPT1 [4]; 1% Etomoxir cream daily, p value 0.01) | CPT1 activity in blood cell pellets versus placebo group (CPT1 [4]; 30% Etomoxir cream daily, p value>0.05) | Sensitivity of CPT1 activity measured in liver to Etomoxir (CPT1 [5]) | Epidermal thickness ([6]; 1% Etomoxir cream daily) | Epidermal thickness ([6]; 30% Etomoxir cream daily (removed after 30 minutes)) | Percentage of ULEX-positive cells in the epidermis (differentiation rate) ([7]; 1% Etomoxir cream) | Percentage of ULEX-positive cells in the epidermis (differentiation rate) ([7]; 30% Etomoxir cream) | Deaths of animals [8] | Number of Ki67 positive cells ([1]; corticosteroid cream daily, placebo 55±37) | CPT1 activity in liver compared to the placebo group (CPT1 [3]; corticosteroid (betamethasone) cream daily) | Average epidermal thickness ([6]; corticosteroid cream daily) | Percentage of ULEX-positive cells in the epidermis ([7]; corticosteroid cream daily) |
| --- | --- | --- | --- | --- | --- | --- | --- | --- | --- | --- | --- | --- | --- | --- | --- | --- | --- | --- | --- |
| CCOC(=O)C1(CCCCCCOc2ccc(Cl)cc2)CO1 (stereo not shown) [Etomoxir, 2-(6-(4-chlorophenoxy)hexyl)oxirane-2-carboxylic acid ethyl ester] | significant decrease | significant decrease | ~15% | ~85% | 73% | 59% | 40% | significantly higher | not significantly different | highly Etomoxir sensitive | 88±10 μm | 69±4 μm | 17±11% | 18±8% | two out of five animals died |  |  |  |  |
| C[C@H]1C[C@H]2[C@@H]3CCC4=CC(=O)C=C[C@]4(C)[C@@]3(F)[C@@H](O)C[C@]2(C)[C@@]1(O)C(=O)CO [corticosteroid, betamethasone] |  |  |  |  |  |  |  |  |  |  |  |  |  |  |  | 10±6 positive cells/unit-length | 83% | 81±9 μm | 24±7% |
